Laboratory results from ChEMBL document CHEMBL4819019, “Design, synthesis, antibacterial activity and toxicity of novel quaternary ammonium compounds based on pyridoxine and fatty acids” (Eur J Med Chem, 2021).
The source made the active and inactive calls. The calls are words filed in the database; no cut-off is given here.

Legend:
Pseudomonas aeruginosa [1] = assay: Antibacterial activity against clinical isolate Pseudomonas aeruginosa 1945 measured after 24 hrs by broth microdilution method; type: functional
[2] = Genotoxicity in Salmonella typhimurium TA1535/pSK1002 assessed as DNA-damage activity by measuring beta-galactosidase activity at 150 ug/ml measured by SOS-chromotest relative to solvent control; type: toxicity; conditions: salmonella enterica subsp. enterica serovar typhimurium; dose 150 µg/ml
Klebsiella sp. = assay: Antibacterial activity against clinical isolate Klebsiella sp. 11 measured after 24 hrs by broth microdilution method; type: functional
Staphylococcus aureus [3] = assay: Antibacterial activity against Staphylococcus aureus assessed as fold increase in MIC after 8 passages by serial dilution method; type: functional, organism-based; conditions: time 24.0 hrs
Klebsiella pneumoniae = assay: Antibacterial activity against clinical isolate Klebsiella pneumoniae 1813 measured after 24 hrs by broth microdilution method; type: functional
Staphylococcus aureus [4] = assay: Antibacterial activity against clinical isolate methicillin-resistant Staphylococcus aureus 1053 measured after 24 hrs by broth microdilution method; type: functional
[5] = Cytotoxicity against human mesenchymal stem cells assessed as cell viability measured after 72 hrs by MTT assay; type: cell-based
[6] = Antibiofilm activity against biofilm-embedded Staphylococcus aureus/Pseudomonas aeruginosa assessed as reduction in viable cells upto 512 mg/L measured after 24 hrs by drop plate based dual species biofilm assay; type: functional, cell-based; conditions: dose mg/L <=512, time 24.0 hrs
[7] = Genotoxicity in Salmonella typhimurium TA1537 assessed as number of revertant by Ames spot test relative to solvent control; type: toxicity; conditions: salmonella enterica subsp. enterica serovar typhimurium
Staphylococcus aureus [8] = assay: Antibacterial activity against clinical isolate Staphylococcus aureus 25 measured after 24 hrs by broth microdilution method; type: functional
[9] = Genotoxicity in Salmonella typhimurium TA98 assessed as number of revertant by Ames spot test relative to solvent control; type: toxicity; conditions: salmonella enterica subsp. enterica serovar typhimurium
[10] = Antibiofilm activity against biofilm-embedded Staphylococcus aureus/Escherichia coli assessed as reduction in viable cells upto 512 mg/L measured after 24 hrs by drop plate based dual species biofilm assay; type: functional, cell-based; conditions: dose mg/L <=512, time 24.0 hrs
Escherichia coli [11] = assay: Antibacterial activity against Escherichia coli assessed as fold increase in MIC after 4 passages by serial dilution method; type: functional, organism-based; conditions: time 24.0 hrs
Moraxella = assay: Antibacterial activity against clinical isolate Moraxella 765 measured after 24 hrs by broth microdilution method; type: functional
[12] = Genotoxicity in Salmonella typhimurium TA1535/pSK1002 assessed as DNA-damage activity by measuring beta-galactosidase activity at 7.5 ug/ml measured by SOS-chromotest relative to solvent control; type: toxicity; conditions: salmonella enterica subsp. enterica serovar typhimurium; dose 7.5 µg/ml
[13] = system: Staphylococcus ureilyticus; assay: Antibacterial activity against clinical isolate Staphylococcus ureilyticus 1972 measured after 24 hrs by broth microdilution method; type: functional
[14] = Acute toxicity in C57BL/6CBA mouse assessed pale gastric mucosa at 2000 mg/kg, po after 7 days; type: organism-based; conditions: in vivo, 168 h, time 7 day
Bacillus subtilis = assay: Antibacterial activity against Bacillus subtilis 168 measured after 24 hrs by broth microdilution method; type: functional
[15] = Genotoxicity in Salmonella typhimurium TA1535/pSK1002 assessed as DNA-damage activity by measuring beta-galactosidase activity at 75 ug/ml measured by SOS-chromotest relative to solvent control; type: toxicity; conditions: salmonella enterica subsp. enterica serovar typhimurium; dose 75 µg/ml
[16] = Acute toxicity in topically treated C57BL/6CBA mouse assessed as death measured at 2500 mg/kg treated as single topically measured after 14 days; type: organism-based; conditions: in vivo, topical_or_ocular, 336 h, time 14 day
Staphylococcus aureus [17] = assay: Antibacterial activity against clinical isolate methicillin-resistant Staphylococcus aureus 1065 measured after 24 hrs by broth microdilution method; type: functional
[18] = Acute toxicity in C57BL/6CBA mouse assessed as pale kidneys at 2000 mg/kg, po after 7 days; type: organism-based; conditions: in vivo, 168 h, time 7 day
Staphylococcus aureus [19] = assay: Antibacterial activity against Staphylococcus aureus ATCC 29213 measured after 24 hrs by broth microdilution method; type: functional
Cell membrane [20] = assay: Induction of cell membrane damage in Staphylococcus aureus assessed as decrease in flourescence measured for 35 mins with 5 min interval by DioC2(3) based flourescence method
Pseudomonas sp. = assay: Antibacterial activity against clinical isolate Pseudomonas sp. 5 measured after 24 hrs by broth microdilution method; type: functional
Pseudomonas aeruginosa [21] = assay: Antibacterial activity against Pseudomonas aeruginosa ATCC 27853 measured after 24 hrs by broth microdilution method; type: functional
[22] = Genotoxicity in Salmonella typhimurium TA100 assessed as number of revertant by Ames spot test relative to solvent control; type: toxicity; conditions: salmonella enterica subsp. enterica serovar typhimurium
Acinetobacter sp. = assay: Antibacterial activity against clinical isolate Acinetobacter sp. 3 measured after 24 hrs by broth microdilution method; type: functional
[23] = Lipophilicity, logP of the compound; type: physicochemical; conditions: octanol/water
Micrococcus luteus [24] = assay: Antibacterial activity against Micrococcus luteus clinical isolate measured after 24 hrs by broth microdilution method; type: functional
[25] = Acute toxicity in po dosed C57BL/6CBA mouse measured upto 7 days; type: organism-based; conditions: in vivo, time <=7 day
[26] = Genotoxicity in Salmonella typhimurium TA1535 assessed as number of revertant by Ames spot test relative to solvent control; type: toxicity; conditions: salmonella enterica subsp. enterica serovar typhimurium
Enterococcus faecalis [27] = assay: Antibacterial activity against clinical isolate Enterococcus faecalis 3063 measured after 24 hrs by broth microdilution method; type: functional
[28] = Cytotoxicity against human HEK293 cells assessed as cell viability measured after 72 hrs by MTT assay; type: cell-based
Enterococcus faecalis [29] = assay: Antibacterial activity against clinical isolate Enterococcus faecalis 23 measured after 24 hrs by broth microdilution method; type: functional
[30] = system: Staphylococcus intermedius; assay: Antibacterial activity against clinical isolate methicillin-resistant Staphylococcus intermedius 1061 measured after 24 hrs by broth microdilution method; type: functional
Pseudomonas aeruginosa [31] = assay: Antibiofilm activity against biofilm-embedded Pseudomonas aeruginosa assessed as reduction in log CFU at 1 to 32 times of MBC measured after 24 hrs by drop plate assay; type: functional, organism-based
Staphylococcus aureus [32] = assay: Antibiofilm activity against biofilm-embedded Staphylococcus aureus assessed as reduction in log CFU at 1 to 32 times of MBC measured after 24 hrs by drop plate assay; type: functional, organism-based
Staphylococcus aureus [33] = assay: Antibacterial activity against clinical isolate methicillin-resistant Staphylococcus aureus 983 measured after 24 hrs by broth microdilution method; type: functional
Escherichia coli [34] = assay: Antibacterial activity against clinical isolate Escherichia coli 718 measured after 24 hrs by broth microdilution method; type: functional
Staphylococcus aureus [35] = assay: Antibacterial activity against clinical isolate methicillin-resistant Staphylococcus aureus 1131 measured after 24 hrs by broth microdilution method; type: functional
[36] = Genotoxicity in Salmonella typhimurium TA1535/pSK1002 assessed as DNA-damage activity by measuring beta-galactosidase activity at 15 ug/ml measured by SOS-chromotest relative to solvent control; type: toxicity; conditions: salmonella enterica subsp. enterica serovar typhimurium; dose 15 µg/ml
Micrococcus luteus [37] = assay: Antibiofilm activity against biofilm-embedded Micrococcus luteus assessed as reduction in log CFU at 1 to 32 times of MBC measured after 24 hrs by drop plate assay; type: functional, organism-based
[38] = system: Staphylococcus intermedius; assay: Antibacterial activity against clinical isolate methicillin-resistant Staphylococcus intermedius 1143 measured after 24 hrs by broth microdilution method; type: functional
Escherichia coli [39] = assay: Antibiofilm activity against biofilm-embedded Escherichia coli assessed as reduction in log CFU at 1 to 32 times of MBC measured after 24 hrs by drop plate assay; type: functional, organism-based
[40] = Acute toxicity in C57BL/6CBA mouse assessed as necropsy measured at 2500 mg/kg treated as single topically measured after 14 days; type: organism-based; conditions: in vivo, topical_or_ocular, 336 h, time 14 day
Cell membrane [41] = assay: Induction of cell membrane damage in Escherichia coli assessed as decrease in flourescence measured for 35 mins with 5 min interval by DioC2(3) based flourescence method
Proteus sp. = assay: Antibacterial activity against clinical isolate Proteus sp. 17 measured after 24 hrs by broth microdilution method; type: functional; conditions: Proteus sp. (in: enterobacteria)
Serratia marcescens = assay: Antibacterial activity against clinical isolate Serratia marcescens 1966 measured after 24 hrs by broth microdilution method; type: functional
Staphylococcus aureus [42] = assay: Antibacterial activity against clinical isolate methicillin-resistant Staphylococcus aureus 713 measured after 24 hrs by broth microdilution method; type: functional
[43] = Genotoxicity in Salmonella typhimurium TA1535/pSK1002 assessed as DNA-damage activity by measuring beta-galactosidase activity at 750 ug/ml measured by SOS-chromotest relative to solvent control; type: toxicity; conditions: salmonella enterica subsp. enterica serovar typhimurium; dose 750 µg/ml
[44] = Acute toxicity in topically treated C57BL/6CBA mouse measured upto 14 days; conditions: in vivo, topical or ocular, time <=14 day
[45] = Cytotoxicity against human skin fibroblasts assessed as cell viability measured after 72 hrs by MTT assay; type: cell-based, Fibroblast
Escherichia coli [46] = assay: Antibacterial activity against Escherichia coli MG 1655 measured after 24 hrs by broth microdilution method; type: functional

## CCCCCCCCCCCCCC(=O)NCC[N+](C)(C)Cc1nc(C)c2c(c1CO)COC(C)(C)O2.[Cl-]
Pseudomonas aeruginosa [1]
  MIC: 32 µg/mL
[2]
  Ratio: 0.7
Klebsiella sp.
  MIC: 32 µg/mL
Staphylococcus aureus [3]
  MIC: Active
Klebsiella pneumoniae
  MIC: 2 µg/mL
Staphylococcus aureus [4]
  MIC: 4 µg/mL
[5]
  CC50 at 72 h: 1.74 µg/mL
[6]
  Activity: inactive
[7]
  Ratio: 0.01
Staphylococcus aureus [8]
  MIC: 2 µg/mL
[9]
  Ratio: 1.9
[10]
  Activity: inactive
Escherichia coli [11]
  MIC: Active
Moraxella
  MIC: 64 µg/mL
[12]
  Ratio: 1.6
[13]
  MIC: > 64 µg/mL
[14]
  Activity: Toxic
Bacillus subtilis
  MIC: 1 µg/mL
[15]
  Ratio: 0.7
[16]
  Activity: Non-Toxic
Staphylococcus aureus [17]
  MIC: 2 µg/mL
[18]
  Activity: Toxic
Staphylococcus aureus [19]
  MIC: 1 µg/mL
Cell membrane [20]
  Activity: Dose-Dependent Effect
Pseudomonas sp.
  MIC: 32 µg/mL
Pseudomonas aeruginosa [21]
  MIC: > 64 µg/mL
[22]
  Ratio: 1.7
Acinetobacter sp.
  MIC: 32 µg/mL
[23]
  logP: 0.73
Micrococcus luteus [24]
  MIC: 2 µg/mL
[25]
  LD50 at 168 h: > 2000 mg/kg
[26]
  Ratio: 1.1
Enterococcus faecalis [27]
  MIC: 1 µg/mL
[28]
  CC50 at 72 h: 1.32 µg/mL
Enterococcus faecalis [29]
  MIC: 1 µg/mL
[30]
  MIC: 4 µg/mL
Pseudomonas aeruginosa [31]
  Activity: Active
Staphylococcus aureus [32]
  Activity: Active
Staphylococcus aureus [33]
  MIC: 32 µg/mL
Escherichia coli [34]
  MIC: 16 µg/mL
Staphylococcus aureus [35]
  MIC: 4 µg/mL
[36]
  Ratio: 1.8
Micrococcus luteus [37]
  Activity: Active
[38]
  MIC: 4 µg/mL
Escherichia coli [39]
  Activity: Active
[40]
  Activity: Non-Toxic
Cell membrane [41]
  Activity: Dose-Dependent Effect
Proteus sp.
  MIC: > 64 µg/mL
Serratia marcescens
  MIC: > 64 µg/mL
Staphylococcus aureus [42]
  MIC: 4 µg/mL
[43]
  Ratio: 0.4
[44]
  LD50 at 336 h: > 2500 mg/kg
[45]
  CC50 at 72 h: 3.21 µg/mL
Escherichia coli [46]
  MIC: 8 µg/mL
